Where a SMILES comes first, the peptide text is derived from it. [ ]: non-standard residue; d: D form. The star is where a group is joined. AllylGly = C=CC[C@H](N)C(=O)O; Boc = CC(C)(C)OC(=O)*; NHBn = c1ccc(CN*)cc1; NHtBu = CC(C)(C)N*; ClAc = O=C(CCl)*
Assays:
SARS-CoV-2 PL^pro = SARS-CoV-2 PL^pro (Severe acute respiratory syndrome coronavirus 2, UniProt P0DTD1); experiment: PL^pro enzymatic assay; format: biochemical
[1] = test system: SARS-CoV-2 UC-1074 strain; experiment: SARS-CoV-2 antiviral assay in Vero cells, strain UC-1074; format: cell-based; settings: over two different SARS-CoV-2 strains as worded
cytomegalovirus = experiment: Antiviral activity over Vero cells infected with CMV; format: cell-based; settings: data not shown
varicella zoster virus = experiment: Antiviral activity over Vero cells infected with VZV; format: cell-based; settings: data not shown
[2] = test system: SARS-CoV-2 UC-1075 strain; experiment: SARS-CoV-2 antiviral assay in Vero cells, strain UC-1075; format: cell-based; settings: Severe acute respiratory syndrome coronavirus 2, UC1075, Vero, 120 h, read-out: Antiviral activity EC50 UC-1075 #1 strain Vero cells

Compound	IC50 (SARS-CoV-2 PL^pro) [µM]	also measured
C#CC[C@H](NCCC)C(=O)N[C@@H](Cc1c[nH]c2ccccc12)C(=O)NCc1ccc(-c2ccccc2)cc1 [Compound 28, (S)–N-((S)-1-(([1,1′-biphenyl]-4-ylmethyl)amino)-3-(1H-indol-3-yl)-1-oxopropan-2-yl)-2-(propylamino)pent-4-ynamide]	> 25	
CC(C)C[C@H](NCc1ccc(-c2ccccc2)cc1)C(=O)N[C@@H](Cc1c[nH]c2ccccc12)C(=O)NC(C)(C)C [Compound 23, 2-(([1,1′-biphenyl]-4-ylmethyl)amino)-N-(1-(tert-butylamino)-3-(1H-indol-3-yl)-1-oxopropan-2-yl)-4-methylpentanamide]	> 25	
C=CC[C@H](NCc1ccccc1)C(=O)N[C@@H](Cc1c[nH]c2ccccc12)C(=O)NCc1ccc(-c2ccccc2)cc1 [Compound 26, (S)–N-((S)-1-(([1,1′-biphenyl]-4-ylmethyl)amino)-3-(1H-indol-3-yl)-1-oxopropan-2-yl)-2-(benzylamino)pent-4-enamide]	> 25	
CC(C)(C)NC(=O)[C@H](Cc1c[nH]c2ccccc12)NC(=O)[C@@H]1CCCN1C(=O)OC(C)(C)C [Compound 7, tert-butyl 2-((1-(tert-butylamino)-3-(1H-indol-3-yl)-1-oxopropan-2-yl)carbamoyl)pyrrolidine-1-carboxylate] (Boc-Pro-Trp-NHtBu)	> 25	
C#CC[C@H](NCc1ccc(-c2ccccc2)cc1)C(=O)N[C@@H](Cc1c[nH]c2ccccc12)C(=O)NC(C)(C)C [Compound 24, (S)-2-(([1,1′-biphenyl]-4-ylmethyl)amino)-N-((S)-1-(tert-butylamino)-3-(1H-indol-3-yl)-1-oxopropan-2-yl)pent-4-ynamide]	> 25	
CC(C)(C)NC(=O)[C@H](Cc1c[nH]c2ccccc12)NC(=O)[C@H](Cc1ccccc1)NCc1ccc(-c2ccccc2)cc1 [Compound 22, (S)-2-(([1,1′-biphenyl]-4-ylmethyl)amino)-N-((S)-1-(tert-butylamino)-3-(1H-indol-3-yl)-1-oxopropan-2-yl)-3-phenylpropanamide]	> 25	
C=CC[C@H](NC(=O)CCl)C(=O)N[C@@H](Cc1c[nH]c2ccccc12)C(=O)NCc1ccccc1 [Compound 29, (S)–N-((S)-1-(benzylamino)-3-(1H-indol-3-yl)-1-oxopropan-2-yl)-2-(2-chloroacetamido)pent-4-enamide] (ClAc-[AllylGly]-Trp-NHBn)		Cellular antiviral potency relative to compound 27 (fold higher) [1]: 28 fold; Antiviral effect over cytomegalovirus (cytomegalovirus): no effects; Antiviral effect over varicella zoster virus (varicella zoster virus): no effects
C#CC[C@H](NCc1ccccc1)C(=O)N[C@@H](Cc1c[nH]c2ccccc12)C(=O)NCc1ccc(-c2ccccc2)cc1 [Compound 27, (S)–N-((S)-1-(([1,1′-biphenyl]-4-ylmethyl)amino)-3-(1H-indol-3-yl)-1-oxopropan-2-yl)-2-(benzylamino)pent-4-ynamide]	> 25	Antiviral effect over cytomegalovirus (cytomegalovirus): no effects; Antiviral effect over varicella zoster virus (varicella zoster virus): no effects
C#CC[C@H](NC(=O)OC(C)(C)C)C(=O)N(Cc1ccccc1)Cc1cn(C)c2ccc(C(=O)OC)cc12 [Compound 35, (S)-Methyl 3-((N-benzyl-2-((tert-butoxycarbonyl)amino)pent-4-ynamido)methyl)-1-methyl-1H-indole-5-carboxylate]	> 25	
CC(C)C[C@H](NCc1ccc(-c2ccccc2)cc1)C(=O)N[C@@H](Cc1c[nH]c2ccccc12)C(=O)NCc1ccccc1 [Compound 25, (S)-2-(([1,1′-biphenyl]-4-ylmethyl)amino)-N-((S)-1-(benzylamino)-3-(1H-indol-3-yl)-1-oxopropan-2-yl)-4-methylpentanamide]	> 25	EC50 [2]: > 20 µM
